Among the data in patent US7956190B2, “Benzimidazole amido derivatives as kinase inhibitors” (Hoffmann-La Roche Inc., priority 2007, dated 2011) are IC50 values, retold here.

For this assay, the system named is HCT 116 cells. The experiment in a line: CellTiter-Glo Assay in HCT 116 Cells. It is filed as cell-based. The note with it: HCT 116 human colon carcinoma cells, 5 days (120 h) incubation, CellTiter-Glo luminescence, tested in triplicate. The text has this: CellTiter-Glo™ Assay in HCT 116 Cells
The CellTiter-Glo™ Luminescent Cell Viability Assay (Promega) is a homogeneous method of determining the number of viable cells in culture based on quantitation of the ATP present, which signals the presence of metabolically active cells.
HCT 116 cells (human colon carcinoma, ATCC-No. CCl-247) were cultivated in RPMI 1640 medium with GlutaMAX™ I (Invitrogen, Cat-No. 61870-010), 5% Fetal Calf Serum (FCS, Sigma Cat-No. F4135 (FBS)); 100 Units/ml penicillin/100 μg/ml streptomycin (=Pen/Strep from Invitrogen Cat. No. 15140). For the assay the cells were seeded in 384 well plates, 1000 cells per well, in the same medium. The next day the test compounds were added in various concentrations ranging from 30 μM to 0.0015 μM (10 concentrations, 1:3 diluted). After 5 days the CellTiter-Glo™ assay was done according to the instructions of the manufacturer (CellTiter-Glo™ Luminescent Cell Viability Assay, from Promega). In brief: the cell-plate was equilibrated to room temperature for approximately 30 minutes and than the CellTiter-Glo™ reagent was added. The contents were carefully mixed for 15 minutes to induce cell lysis. After 45 minutes the luminescent signal was measured in Victor 2, (scanning multiwell spectrophotometer, Wallac).
• Medium: RPMI 1640 with GlutaMAX™ I (Invitrogen, Cat-Nr. 61870), 5% FCS (Sigma Cat.-No. F4135), Pen/Strep (Invitrogen, Cat No. 15140). • HCT116 (ATCC-No. CCl-247): 1000 cells in 60 μl per well of 384 well plate (Greiner 781098, μClear-plate white) • After seeding incubate plates 24 h at 37° C., 5% CO2 2nd. Day: Induction (Treatment with Compounds, 10 Concentrations):
In order to achieve a final concentration of 30 μM as highest concentration 3.5 μl of 10 mM compound stock solution were added directly to 163 μl media. Then step e) of the dilution procedure described below, was followed.
Compound `N#Cc1cccc(C(=O)Nc2cccc3[nH]c(-c4c(NCc5ccccn5)cc[nH]c4=O)nc23)c1` [Example A-1, 3-Cyano-N-(2-[2-oxo-4-1 (pyridin-2-ylmethyl)-amino]-1,2-dihydro-pyridin-1H-benzoimidazol-4-yl)-benzamide] showed a half-maximal inhibitory concentration (IC50) of 1.36 µM. This counts as single-digit micromolar. The figure for `COc1ccc(C(=O)Nc2cccc3nc(-c4c(NCc5ccccc5)cc[nH]c4=O)[nH]c23)cc1` [Example A-3, N-[2-(4-Benzylamino-2-oxo-1,2-dihydro-pyridin-3-yl)-3H-benzoimidazol-4-yl]-4-methoxy-benzamide] is 1 to 15 µM; for `O=C(Nc1cccc2nc(-c3c(NCc4ccccc4)cc[nH]c3=O)[nH]c12)c1ccccc1` [Example A-4, N-[2-(4-Benzylamino-2-oxo-1,2-dihydro-pyridin-3-yl)-3H-benzoimidazol-4-yl]-benzamide] it is 1 to 15 µM; for `O=C(Nc1cccc2nc(-c3c(NCc4ccccn4)cc[nH]c3=O)[nH]c12)c1ccccc1` [Example A-5, N-(2-{2-oxo-4-[(pyridin-2-ylmethyl)-amino]-1,2-dihydro-pyridin-3-yl}-3H-benzoimidazol-4-yl)-benzamide] it is 1 to 15 µM. Compound `COc1ccc(C(=O)Nc2cccc3nc(-c4c(NCc5ccccn5)cc[nH]c4=O)[nH]c23)cc1` [Example A-6, 4-Methoxy-N-(2-{2-oxo-4-[(pyridin-2-ylmethyl)-amino]-1,2-dihydro-pyridin-3-yl}-3H-benzoimidazol-4-yl)-benzamide] yielded an IC50 of 1 to 15 µM. The same measure for `O=C(Nc1cccc2nc(-c3c(NCc4ccccn4)cc[nH]c3=O)[nH]c12)c1ccc(Cl)cc1` [Example A-7, 4-Chloro-N-(2-{2-oxo-4-[(pyridin-2-ylmethyl)-amino]-1,2-dihydro-pyridin-3-yl}-3H-benzoimidazol-4-yl)-benzamide]: 1 to 15 µM. The same measure for `COc1ccc(C(=O)Nc2cccc3nc(-c4c(NCc5cccc(Cl)c5)cc[nH]c4=O)[nH]c23)cc1` [Example A-8, N-{2-[4-(3-Chloro-benzylamino)-2-oxo-1,2-dihydro-pyridin-3-yl]-3H-benzoimidazol-4-yl}-4-methoxy-benzamide]: 1 to 15 µM. `O=C(Nc1cccc2nc(-c3c(NCC(O)c4ccccc4)cc[nH]c3=O)[nH]c12)c1cccc(Cl)c1` (centres unmarked) [Example A-11, 3-Chloro-N-[2-[4-(2-hydroxy-2-phenyl-ethylamino)-2-oxo-1,2-dihydro-pyridin-3-yl]-3H-benzoimidazol-4-yl]-benzamide] returned a 50% inhibitory concentration (IC50) of 1 to 15 µM. In the case of `O=C(Nc1cccc2nc(-c3c(NC[C@@H](O)c4ccccc4)cc[nH]c3=O)[nH]c12)c1ccc(F)cc1` [Example A-12, 4-Fluoro-N-{2-[4-((S)-2-hydroxy-2-phenyl-ethylamino)-2-oxo-1,2-dihydro-pyridin-3-yl]-3H-benzoimidazol-4-yl}-benzamide], the IC50 was 1 to 15 µM. The same measure for `O=C(Nc1cccc2nc(-c3c(NC[C@@H](O)c4ccccc4)cc[nH]c3=O)[nH]c12)c1ccc(C(F)(F)F)cc1` [Example A-15, N-{2-[4-((S)-2-Hydroxy-2-phenyl-ethylamino)-2-oxo-1,2-dihydro-pyridin-3-yl]-3H-benzoimidazol-4-yl}-4-trifluoromethyl-benzamide]: 1 to 15 µM; for `COc1ccccc1C(=O)Nc1cccc2nc(-c3c(NCc4ccccc4)cc[nH]c3=O)[nH]c12` [Example A-16, N-[2-(4-Benzylamino-2-oxo-1,2-dihydro-pyridin-3-yl)-3H-benzoimidazol-4-yl]-2-methoxy-benzamide]: 1 to 15 µM; for `O=C(Nc1cccc2nc(-c3c(NCc4ccccc4)cc[nH]c3=O)[nH]c12)c1ccccc1Cl` [Example A-17, N-[2-(4-Benzylamino-2-oxo-1,2-dihydro-pyridin-3-yl)-3H-benzoimidazol-4-yl]-2-chloro-benzamide]: 1 to 15 µM. The same measure for `O=C(Nc1cccc2nc(-c3c(NCc4ccccc4)cc[nH]c3=O)[nH]c12)c1ccc(Cl)cc1` [Example A-18, N-[2-(4-Benzylamino-2-oxo-1,2-dihydro-pyridin-3-yl)-3H-benzoimidazol-4-yl]-4-chloro-benzamide]: 1 to 15 µM; for `O=C(Cc1ccccc1)Nc1cccc2nc(-c3c(NC[C@@H](O)c4ccccc4)cc[nH]c3=O)[nH]c12` [Example B-1, N-{2-[4-((S)-2-Hydroxy-2-phenyl-ethylamino)-2-oxo-1,2-dihydro-pyridin-3-yl]-3H-benzoimidazol-4-yl}-2-phenyl-acetamide]: 1 to 15 µM; for `O=C(Nc1cccc2nc(-c3c(NCc4cccc(Cl)c4)cc[nH]c3=O)[nH]c12)c1ccccc1` [Example B-2, N-{2-[4-(3-Chloro-benzylamino)-2-oxo-1,2-dihydro-pyridin-3-yl]-3H-benzoimidazol-4-yl}-benzamide]: 1 to 15 µM. On to `CC(C)(C)C(=O)Nc1cccc2nc(-c3c(NC[C@@H](O)c4ccccc4)cc[nH]c3=O)[nH]c12` [Example B-3, N-{2-[4-((S)-2-Hydroxy-2-phenyl-ethylamino)-2-oxo-1,2-dihydro-pyridin-3-yl]-3H-benzoimidazol-4-yl}-2,2-dimethyl-propionamide], for which the IC50 was 1 to 15 µM. The figure for `O=C(Nc1cccc2nc(-c3c(NC[C@@H](O)c4ccccc4)cc[nH]c3=O)[nH]c12)c1cccc(C(F)(F)F)c1` [Example B-5, N-{2-[4-((S)-2-Hydroxy-2-phenyl-ethylamino)-2-oxo-1,2-dihydro-pyridin-3-yl]-3H-benzoimidazol-4-yl}-3-trifluoromethyl-benzamide] is 1 to 15 µM; for `O=C(COc1ccccc1)Nc1cccc2nc(-c3c(NC[C@@H](O)c4ccccc4)cc[nH]c3=O)[nH]c12` [Example B-6, N-{2-[4-((S)-2-Hydroxy-2-phenyl-ethylamino)-2-oxo-1,2-dihydro-pyridin-3-yl]-3H-benzoimidazol-4-yl}-2-phenoxy-acetamide] it is 1 to 15 µM; for `O=C(Nc1cccc2nc(-c3c(NC[C@@H](O)c4ccccc4)cc[nH]c3=O)[nH]c12)C1CC1` [Example B-8, Cyclopropanecarboxylic acid {2-[4-((S)-2-hydroxy-2-phenyl-ethylamino)-2-oxo-1,2-dihydro-pyridin-3-yl]-3H-benzoimidazol-4-yl}-amide] it is 1 to 15 µM. In turn, `O=C(Nc1cccc2nc(-c3c(NC[C@@H](O)c4ccccc4)cc[nH]c3=O)[nH]c12)c1ccccc1F` [Example B-9, 2-Fluoro-N-{2-[4-((S)-2-hydroxy-2-phenyl-ethylamino)-2-oxo-1,2-dihydro-pyridin-3-yl]-3H-benzoimidazol-4-yl}-benzamide] had an IC50 of 1 to 15 µM. The figure for `O=C(Nc1cccc2nc(-c3c(NCC(O)c4ccccc4)cc[nH]c3=O)[nH]c12)c1ccccc1Cl` (centres unmarked) [Example B-10, 2-Chloro-N-{2-[4-(2-hydroxy-2-phenyl-ethylamino)-2-oxo-1,2-dihydro-pyridin-3-yl]-3H-benzoimidazol-4-yl}-benzamide] is 1 to 15 µM. Compound `O=C(COc1ccc(Cl)cc1)Nc1cccc2nc(-c3c(NC[C@@H](O)c4ccccc4)cc[nH]c3=O)[nH]c12` [Example B-11, 2-(4-Chloro-phenoxy)-N-{2-[4-((S)-2-hydroxy-2-phenyl-ethylamino)-2-oxo-1,2-dihydro-pyridin-3-yl]-3H-benzoimidazol-4-yl}-acetamide] showed an IC50 of 1 to 15 µM. The figure for `N#Cc1cccc(C(=O)Nc2cccc3nc(-c4c(NC[C@@H](O)c5ccccc5)cc[nH]c4=O)[nH]c23)c1` [Example B-12, 3-Cyano-N-{2-[4-((S)-2-hydroxy-2-phenyl-ethylamino)-2-oxo-1,2-dihydro-pyridin-3-yl]-3H-benzoimidazol-4-yl}-benzamide] is 1 to 15 µM. The figure for `COCC(=O)Nc1cccc2nc(-c3c(NC[C@@H](O)c4ccccc4)cc[nH]c3=O)[nH]c12` [Example B-13, N-{2-[4-((S)-2-Hydroxy-2-phenyl-ethylamino)-2-oxo-1,2-dihydro-pyridin-3-yl]-3H-benzoimidazol-4-yl}-2-methoxy-acetamide] is 1 to 15 µM; for `O=C(Nc1cccc2nc(-c3c(NC[C@@H](O)c4ccccc4)cc[nH]c3=O)[nH]c12)c1cccc(F)c1` [Example B-15, 3-Fluoro-N-{2-[4-((S)-2-hydroxy-2-phenyl-ethylamino)-2-oxo-1,2-dihydro-pyridin-3-yl]-3H-benzoimidazol-4-yl}-benzamide] it is 6.92 µM. Compound `O=C(Nc1cccc2nc(-c3c(NC[C@@H](O)c4ccccc4)cc[nH]c3=O)[nH]c12)c1ccc(Cl)cc1Cl` [Example B-16, 2,4-Dichloro-N-{2-[4-((S)-2-hydroxy-2-phenyl-ethylamino)-2-oxo-1,2-dihydro-pyridin-3-yl}-3H-benzoimidazol-4-yl]-benzamide] gave an IC50 of 1 to 15 µM.
